Results taken from patent US20210045385A1, “PYRIDAZINONE-SUBSTITUTED KETOXIMES AS HERBICIDES” (FMC Corporation, priority 2018, published 2021).

What was measured:
Format in all cases: in vivo
[1] = test system: foxtail, giant (giant foxtail, Setaria faberi); assay: Test C preemergence, visual plant response rating; settings: Test C, 0 is no effect, 100 is complete control
Procedure, shortened: (§1)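 Visual injury on a 0 (no effect) to 100 (complete control) scale versus untreated controls, scored approximately 10 d after treatment under greenhouse conditions. Treatments used surfactant-containing non-phytotoxic solvent formulations, sprayed onto loam–sand soil preemergence or onto one- to two-leaf plants 2–10 cm tall postemergence.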

[2] = test system: Italian ryegrass (Lolium mutiflorum); assay: Test C preemergence, visual plant response rating; settings: Test C, 0 is no effect, 100 is complete control
Procedure, shortened: as §1

[3] = test system: ragweed (common ragweed, Ambrosia artemisiifolia); assay: Test C preemergence, visual plant response rating; settings: Test C, 0 is no effect, 100 is complete control
Procedure, shortened: as §1

[4] = test system: pigweed (Amaranthus retroflexus); assay: Test C preemergence, visual plant response rating; settings: Test C, 0 is no effect, 100 is complete control
Procedure, shortened: as §1

[5] = test system: barnyardgrass (Echinochloa crus-galli); assay: Test C preemergence, visual plant response rating; settings: Test C, 0 is no effect, 100 is complete control
Procedure, shortened: as §1

kochia (Bassia scoparia) [6] = assay: Test C preemergence, visual plant response rating; settings: Test C, 0 is no effect, 100 is complete control
Procedure, shortened: as §1

[7] = test system: duck salad (Heteranthera limosa); assay: Test D flooded paddy test, visual plant response rating; settings: 250 g ai/ha, scale 0 to 100 (0 no effect, 100 complete control), 13 to 15 d
Procedure, shortened: (§2)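 Rating is visual, on a 0 (no effect) to 100 (complete control) scale versus controls, taken 13 to 15 d after treatment in a greenhouse. Treatment went into paddy water kept 3 cm above the soil surface, with plants at the 2-leaf stage.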

rice (Oryza sativa) = assay: as above; settings: 250 g ai/ha, scale 0 to 100 (0 no effect, 100 complete control), 13 to 15 d
Procedure, shortened: as §2

[8] = test system: barnyardgrass (Echinochloa crus-galli); assay: as above; settings: 250 g ai/ha, scale 0 to 100 (0 no effect, 100 complete control), 13 to 15 d
Procedure, shortened: as §2

[9] = test system: sedge umbrella (small-flower umbrella sedge, Cyperus difformis); assay: as above; settings: 250 g ai/ha, scale 0 to 100 (0 no effect, 100 complete control), 13 to 15 d
Procedure, shortened: as §2

[10] = test system: galium (catchweed bedstraw, Galium aparine); assay: Test C postemergence, visual plant response rating
Procedure, shortened: as §1

[11] = test system: foxtail, giant (giant foxtail, Setaria faberi); assay: Test C postemergence, visual plant response rating
Procedure, shortened: as §1

[12] = test system: Italian ryegrass (Lolium mutiflorum); assay: Test C postemergence, visual plant response rating
Procedure, shortened: as §1

[13] = test system: wheat (Triticum aestivum); assay: Test C postemergence, visual plant response rating
Procedure, shortened: as §1

[14] = test system: ragweed (common ragweed, Ambrosia artemisiifolia); assay: Test C postemergence, visual plant response rating
Procedure, shortened: as §1

corn (Zea mays) = assay: Test C postemergence, visual plant response rating
Procedure, shortened: as §1

[15] = test system: blackgrass (Alopecurus myosuroides); assay: Test C postemergence, visual plant response rating
Procedure, shortened: as §1

[16] = test system: pigweed (Amaranthus retroflexus); assay: Test C postemergence, visual plant response rating
Procedure, shortened: as §1

[17] = test system: barnyardgrass (Echinochloa crus-galli); assay: Test C postemergence, visual plant response rating
Procedure, shortened: as §1

kochia (Bassia scoparia) [18] = assay: Test C postemergence, visual plant response rating
Procedure, shortened: as §1

[19] = Test C, postemergence, 125 g ai/ha

CON=C(c1cccc(OC)c1)c1c(O)c(C)nn(C)c1=O [Compound 204]
Foxtail, Giant plant response rating (0 to 100 scale) ([1]; 31 g ai/ha): 0 | Foxtail, Giant plant response rating (0 to 100 scale) ([1]; 125 g ai/ha): 0 | Ryegrass, Italian plant response rating (0 to 100 scale) ([2]; 31 g ai/ha): 0 | Ryegrass, Italian plant response rating (0 to 100 scale) ([2]; 125 g ai/ha): 0 | Ragweed plant response rating (0 to 100 scale) ([3]; 31 g ai/ha): 0 | Ragweed plant response rating (0 to 100 scale) ([3]; 125 g ai/ha): 0 | Pigweed plant response rating (0 to 100 scale) ([4]; 31 g ai/ha): 0 | Pigweed plant response rating (0 to 100 scale) ([4]; 125 g ai/ha): 0 | Barnyardgrass plant response rating (0 to 100 scale) ([5]; 31 g ai/ha): 0 | Barnyardgrass plant response rating (0 to 100 scale) ([5]; 125 g ai/ha): 0 | Kochia plant response rating (0 to 100 scale) (kochia (Bassia scoparia) [6]; 31 g ai/ha): 0 | Kochia plant response rating (0 to 100 scale) (kochia (Bassia scoparia) [6]; 125 g ai/ha): 0 | Plant response rating, Ducksalad (Flood) [7]: 0 | Plant response rating, Rice (Flood) (rice (Oryza sativa)): 0 | Plant response rating, Barnyardgrass (Flood) [8]: 0 | Plant response rating, Sedge, Umbrella (Flood) [9]: 0 | Galium plant response rating (0 to 100 scale) ([10]; Postemergence, 31 g ai/ha): 10 | Galium plant response rating (0 to 100 scale) [10, 19]: 40 | Foxtail, Giant plant response rating (0 to 100 scale) ([11]; Postemergence, 31 g ai/ha): 0 | Foxtail, Giant plant response rating (0 to 100 scale) [11, 19]: 0 | Ryegrass, Italian plant response rating (0 to 100 scale) ([12]; Postemergence, 31 g ai/ha): 0 | Ryegrass, Italian plant response rating (0 to 100 scale) [12, 19]: 0 | Wheat plant response rating (0 to 100 scale) ([13]; Postemergence, 31 g ai/ha): 0 | Wheat plant response rating (0 to 100 scale) [13, 19]: 0 | Ragweed plant response rating (0 to 100 scale) ([14]; Postemergence, 31 g ai/ha): 0 | Ragweed plant response rating (0 to 100 scale) [14, 19]: 0 | Corn plant response rating (0 to 100 scale) (corn (Zea mays); Postemergence, 31 g ai/ha): 0 | Corn plant response rating (0 to 100 scale) (corn (Zea mays); [19]): 0 | Blackgrass plant response rating (0 to 100 scale) ([15]; Postemergence, 31 g ai/ha): 0 | Blackgrass plant response rating (0 to 100 scale) [15, 19]: 0 | Pigweed plant response rating (0 to 100 scale) ([16]; Postemergence, 31 g ai/ha): 0 | Pigweed plant response rating (0 to 100 scale) [16, 19]: 10 | Barnyardgrass plant response rating (0 to 100 scale) ([17]; Postemergence, 31 g ai/ha): 0 | Barnyardgrass plant response rating (0 to 100 scale) [17, 19]: 0 | Kochia plant response rating (0 to 100 scale) (kochia (Bassia scoparia) [18]; Postemergence, 31 g ai/ha): 0 | Kochia plant response rating (0 to 100 scale) (kochia (Bassia scoparia) [18]; [19]): 10
